# Tested on: recombinant AMPK proteins (α1β1γ1, α2β1γ1, α1(1-335), α1(1-394) or α2(1-394))
# Assay: Scintillation Proximity Assay (SPA), AMPK activation
# Format: biochemical, human
# Conditions: effective concentration of activator for 50% of maximal enzyme activity; 50 nM AMPK, 2 μM ATP, 2 μM biotin-SAMS, 30° C., 2 hours
# Description: Recombinant human AMPK α1β1γ1, α2β1γ1 or AMPK α subunit truncations α1(1-335), α1(1-394) and α2(1-394) were constructed, expressed and purified as described previously (Pang, T., Zhang, Z. S., Gu, M., Qiu, B. Y., Yu, L. F., Cao, P. R., Shao, W., Su, M. B., Li, J. Y., Nan, F. J., and Li, J. (2008). Rat liver AMPK heterotrimer enzyme was obtained from Upstate (Billerica, Mass., U.S.A.).
# Scintillation Proximity Assay
# Before the Scintillation Proximity Assay (SPA) assay, 200 nM recombinant AMPK proteins (α1β1γ1, α2β1γ1, α1(1-335), α1(1-394) or α2(1-394)) were fully phosphorylated as described previously (Pang et al., 2008). SPA reactions were performed in 96-well plates at a final volume of 50 μL containing 20 mM Tris-HCl pH 7.5, 5 mM MgCl2, 1 mM DTT, 2 μM biotin-SAMS, 2 μM ATP, 0.2 μCi/well [γ-^33P]ATP, and various amount of activator. Reactions were initiated by the addition of 50 nM recombinant AMPK proteins to the reaction solutions and incubated at 30° C. for 2 hours. After that, reactions were terminated by the addition of 40 μL stop solution containing 80 μg streptavidin-coated SPA beads per well, 50 mM ED TA, 0.1% Triton X-100 in PBS, pH 7.5 and incubated for 1 hour. Finally, a 160 μL suspension solution containing 2.4 M CsCl, 50 mM EDTA, and 0.1% Triton X-100 in PBS (pH 7.5) was added to the reaction solution to suspend SPA beads completely. SPA signals were determined with a Wallac MicroBeta plate counter (PerkinElmer) 30 min later for calculation of the amount of product formed. The amount of products formed in 2 hour was plotted against activator concentrations to determine the effective concentration of the activator (EC50) required for 50% of maximal enzyme activity.
row,Compound,EC50 [µM]
1,"Cc1ccc(F)cc1C1CC2(CC2)c2cc(C(=O)O)ccc2N1 (centres unmarked) [Example 1, 2-(5-Fluoro-2-methyl-phenyl)-spiro(cyclopropane-1,4′-1′,2′,3′,4′-tetrahydroquinoline)-6-carboxylic acid]",2.07
2,"O=C(O)c1ccc2c(c1)C1(CC1)CC(c1cc(Br)ccc1F)N2 (centres unmarked) [Example 2, 2-(5-Bromo-2-fluoro-phenyl)-spiro(cyclopropane-1,4′-1′,2′,3′,4′-tetrahydroquinoline)-6-carboxylic acid]",3.21
3,"O=C(O)c1ccc2c(c1)C1(CC1)CC(c1cc(Cl)ccc1Cl)N2 (centres unmarked) [Example 3, 2-(2,5-Dichloro-phenyl)-spiro(cyclopropane-1,4′-1′,2′,3′,4′-tetrahydroquinoline)-6-carboxylic acid]",6.12
4,"O=C(O)c1ccc2c(c1)C1(CC1)CC(c1cc(Cl)cc(Cl)c1)N2 (centres unmarked) [Example 4, 2-(3,5-Dichloro-phenyl)-spiro(cyclopropane-1,4′-1′,2′,3′,4′-tetrahydroquinoline)-6-carboxylic acid]",13.2
5,"O=C(O)c1ccc2c(c1)C1(CC1)CC(c1cc(Cl)ccc1F)N2 (centres unmarked) [Example 5, 2-(5-Chloro-2-fluoro-phenyl)-spiro(cyclopropane-1,4′-1′,2′,3′,4′-tetrahydroquinoline)-6-carboxylic acid]",1.24
6,"CS(=O)(=O)c1cccc(C2CC3(CC3)c3cc(C(=O)O)ccc3N2)c1 (centres unmarked) [Example 6, 2-(3-Methanesulfonyl-phenyl)-spiro(cyclopropane-1,4′-1′,2′,3′,4′-tetrahydroquinoline)-6-carboxylic acid]",7.41
7,"O=C(O)c1ccc2c(c1)C1(CC1)CC(c1cc(F)ccc1Br)N2 (centres unmarked) [Example 7, 2-(2-Bromo-5-fluoro-phenyl)-spiro(cyclopropane-1,4′-1′,2′,3′,4′-tetrahydroquinoline)-6-carboxylic acid]",2.29
8,"O=C(O)c1ccc2c(c1)C1(CC1)CC(c1cccc(F)c1)N2 (centres unmarked) [Example 8, 2-(3-Fluoro-phenyl)-spiro(cyclopropane-1,4′-1′,2′,3′,4′-tetrahydroquinoline)-6-carboxylic acid]",4.44
9,"O=C(O)c1ccc2c(c1)C1(CCCCC1)CC(c1cc(F)ccc1Br)N2 (centres unmarked) [Example 9, 2-(2-Bromo-5-fluoro-phenyl)-spiro(cyclohexane-1,4′-1′,2′,3′,4′-tetrahydroquinoline)-6-carboxylic acid]",1.68
10,"O=C(O)c1ccc2c(c1)C1(CCCC1)CC(c1cc(F)ccc1Br)N2 (centres unmarked) [Example 10, 2-(2-Bromo-5-fluoro-phenyl)-spiro(cyclopentane-1,4′-1′,2′,3′,4′-tetrahydroquinoline)-6-carboxylic acid]",3.48
11,"CS(=O)(=O)c1ccc(F)cc1C1CC2(CC2)c2cc(C(=O)O)ccc2N1 (centres unmarked) [Example 11, 2-(5-Fluoro-2-methanesulfonyl-phenyl)-spiro(cyclopropane-1,4′-1′,2′,3′,4′-tetrahydroquinoline)-6-carboxylic acid]",4.96
12,"CS(=O)(=O)c1ccc(S(C)(=O)=O)c(C2CC3(CC3)c3cc(C(=O)O)ccc3N2)c1 (centres unmarked) [Example 12, 2-(2,5-Dimethanesulfonyl-phenyl)-spiro(cyclopropane-1,4′-1′,2′,3′,4′-tetrahydroquinoline)-6-carboxylic acid]",5.92
13,"CN(C)C(=O)N1c2ccc(C(=O)O)cc2C2(CC2)CC1c1cc(Cl)ccc1Cl (centres unmarked) [Example 13, 2-(2,5-Dichloro-phenyl)-1-dimethylcarbamoyl-spiro(cyclopropane-1,4′-1′,2′,3′,4′-tetrahydroquinoline)-6-carboxylic acid]",2.63
14,"O=C(O)c1ccc2c(c1)C1(CC1)CC(c1cc(Cl)ccc1Cl)N2Cc1ccccc1 (centres unmarked) [Example 14, 1-Benzyl-2-(2,5-dichloro-phenyl)-spiro(cyclopropane-1,4′-1′,2′,3′,4′-tetrahydroquinoline)-6-carboxylic acid]",3.76
15,"CC1(C)CC(c2cc(Cl)ccc2Cl)Nc2ccc(C(=O)O)cc21 (centres unmarked) [Example 15, 2-(2,5-Dichloro-phenyl)-4,4-dimethyl-1,2,3,4-tetrahydro-quinoline-6-carboxylic acid]",7.6
16,"CC1(C)CC(C(C)(C)c2ccccc2)Nc2ccc(C(=O)O)cc21 (centres unmarked) [Example 16, 4,4-Dimethyl-2-(1-methyl-1-phenyl-ethyl)-1,2,3,4-tetrahydro-quinoline-6-carboxylic acid]",8.61

row,Compound,EC50 [µM]
1,"CC1(C)CC(c2cc(Cl)ccc2F)Nc2cc(Cl)c(C(=O)O)cc21 (centres unmarked) [Example 17, 7-Chloro-2-(5-chloro-2-fluoro-phenyl)-4,4-dimethyl-1,2,3,4-tetrahydro-quinoline-6-carboxylic acid]",4.54
2,"CC1(C)CC(c2cc(Cl)ccc2F)Nc2ccc(CC(=O)O)cc21 (centres unmarked) [Example 18, [2-(5-Chloro-2-fluoro-phenyl)-4,4-dimethyl-1,2,3,4-tetrahydro-quinolin-6-yl]-acetic acid]",4.58
3,"C=CC1(C)CC(c2ccc(F)c(Cl)c2)Nc2ccc(C(=O)O)cc21 (centres unmarked) [Example 19, 2-(3-Chloro-4-fluoro-phenyl)-4-methyl-4-vinyl-1,2,3,4-tetrahydro-quinoline-6-carboxylic acid]",2.13
4,"CC1(c2ccccc2)CC(c2ccc(F)c(Cl)c2)Nc2ccc(C(=O)O)cc21 (centres unmarked) [Example 20, 2-(3-Chloro-4-fluoro-phenyl)-4-methyl-4-phenyl-1,2,3,4-tetrahydro-quinoline-6-carboxylic acid]",3.31
5,"CC1(C)CC(c2cccc(N3CCOCC3)c2)Nc2ccc(C(=O)O)cc21 (centres unmarked) [Example 22, 4,4-Dimethyl-2-(3-morpholin-4-yl-phenyl)-1,2,3,4-tetrahydro-quinoline-6-carboxylic acid]",5.35
6,"CC(C)N1CCN(c2cccc(C3CC(C)(C)c4cc(C(=O)O)ccc4N3)c2)CC1 (centres unmarked) [Example 23, 2-[3-(4-Isopropyl-piperazin-1-yl)-phenyl]-4,4-dimethyl-1,2,3,4-tetrahydro-quinoline-6-carboxylic acid]",7.02
7,"C=CC1(C)CC(c2ccc(F)c(Cl)c2)Nc2ccc(C(=O)O)nc21 (centres unmarked) [Example 25, 6-(3-Chloro-4-fluoro-phenyl)-8-methyl-8-vinyl-5,6,7,8-tetrahydro-[1,5]naphthyridine-2-carboxylic acid]",4.83
8,"CCC1(C)CC(c2ccc(F)c(Cl)c2)Nc2ccc(C(=O)O)nc21 (centres unmarked) [Example 26, 6-(3-Chloro-4-fluoro-phenyl)-8-ethyl-8-methyl-5,6,7,8-tetrahydro-[1,5]naphthyridine-2-carboxylic acid]",2.1
9,"CCC1(C)CC(c2ccc(F)c(Cl)c2)N(CCC(C)C)c2ccc(C(=O)O)nc21 (centres unmarked) [Example 27, 6-(3-Chloro-4-fluoro-phenyl)-8-ethyl-8-methyl-5-(3-methyl-butyl)-5,6,7,8-tetrahydro-[1,5]naphthyridine-2-carboxylic acid]",1.49
10,"Cc1ccc(F)cc1C1CC2(CC2)c2cc(C(=O)NC3CCC3)ccc2N1 (centres unmarked) [Example 28, 2-(5-Fluoro-2-methyl-phenyl)-spiro(cyclopropane-1,4′-1′,2′,3′,4′-tetrahydroquinoline)-6-carboxylic acid cyclobutylamide]",11.4
11,"Cc1ccc(F)cc1C1CC2(CC2)c2cc(C(=O)N3CCOCC3)ccc2N1 (centres unmarked) [Example 30, [2-(5-Fluoro-2-methyl-phenyl)-spiro(cyclopropane-1,4′-1′,2′,3′,4′-tetrahydroquinolin)-6-yl]-morpholin-4-yl-methanone]",2.47
12,"Cc1ccc(F)cc1C1CC2(CC2)c2cc(C(=O)N3CCN(C)CC3)ccc2N1 (centres unmarked) [Example 31, [2-(5-Fluoro-2-methyl-phenyl)-spiro(cyclopropane-1,4′-1′,2′,3′,4′-tetrahydroquinolin)-6-yl]-(4-methyl-piperazin-1-yl)-methanone]",2.58
13,"O=C(c1ccc2c(c1)C1(CC1)CC(c1cc(F)ccc1Br)N2)N1CCOCC1 (centres unmarked) [Example 32, [2-(2-Bromo-5-fluoro-phenyl)-spiro(cyclopropane-1,4′-1′,2′,3′,4′-tetrahydroquinolin)-6-yl]-morpholin-4-yl-methanone]",1.24
14,"CC(C)NC(=O)c1ccc2c(c1)C1(CC1)CC(c1cc(F)ccc1Br)N2 (centres unmarked) [Example 33, 2-(2-Bromo-5-fluoro-phenyl)-spiro(cyclopropane-1,4′-1′,2′,3′,4′-tetrahydroquinoline)-6-carboxylic acid isopropylamide]",13.6
15,"CN(C)C(=O)c1ccc2c(c1)C1(CC1)CC(c1cc(F)ccc1Br)N2 (centres unmarked) [Example 34, 2-(2-Bromo-5-fluoro-phenyl)-spiro(cyclopropane-1,4′-1′,2′,3′,4′-tetrahydroquinoline)-6-carboxylic acid dimethylamide]",2.71
16,"O=C(NC1CCC1)c1ccc2c(c1)C1(CC1)CC(c1cc(F)ccc1Br)N2 (centres unmarked) [Example 35, 2-(2-Bromo-5-fluoro-phenyl)-spiro(cyclopropane-1,4′-1′,2′,3′,4′-tetrahydroquinoline)-6-carboxylic acid cyclobutylamide]",6.88
